{"source": "paper PMC8146336", "about": "“The Mechanisms of Thiosulfate Toxicity against Saccharomyces cerevisiae” (Antioxidants, 2021)", "biological_target": "T1, cytochrome c oxidase (Saccharomyces cerevisiae, UniProt P00401+P00410)", "T1 construct": "gene COX1; native complex IV in whole sulfur-starved yeast cells; not purified; with Cytochrome c oxidase subunit 3; Cytochrome c oxidase subunit 4, mitochondrial; Cytochrome c oxidase subunit 5A, mitochondrial; Cytochrome c oxidase subunit 6, mitochondrial; Cytochrome c oxidase subunit 7, mitochondrial; Cytochrome c oxidase subunit 8, mitochondrial; Cytochrome c oxidase subunit 9, mitochondrial; Cytochrome c oxidase subunit 12, mitochondrial; Cytochrome c oxidase subunit 13, mitochondrial", "test": "oxygen consumption of whole cells with TMPD/ascorbate as electron donor", "format": "cell-based", "settings": "10 mM thiosulfate, 12.5 mM ascorbate, 1.4 mM TMPD, PBS, sulfur-starved cells OD600 10; CuB binding only proposed", "data": [{"compound": "O=S(O)(O)=S", "note": "[thiosulfate]", "values": [{"measurement": "inhibition at 10 mM", "value": "In the assay, thiosulfate inhibited cytochrome c oxidase (Figure 5E)"}]}]}
